Tests used:
Test in all cases: relative viability (nuclei count vs DMSO), 5 days (fraction); higher = more cells survive
Crizotinib + Luminespib = compound: C[C@@H](Oc1cc(-c2cnn(C3CCNCC3)c2)cnc1N)c1c(Cl)ccc(F)c1Cl [Crizotinib] + CCNC(=O)c1noc(-c2cc(C(C)C)c(O)cc2O)c1-c1ccc(CN2CCOCC2)cc1 [Luminespib] (partner 0.01 µM)
In short: (§1)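 One day after seeding in 1536-well plates, lung cancer cell lines were dosed by pin tool. Dosing was either single-drug or a fixed anchor-drug dose plus five library-drug doses (not always all listed) in √10 steps. After 5 days, nuclei were stained in one fix-and-stain step and counted on 4× images, and relative viability is the nuclei count of treated wells over that of vehicle wells, given as the median of duplicate plates.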

Olaparib + Bortezomib = compound: O=C(c1cc(Cc2n[nH]c(=O)c3ccccc23)ccc1F)N1CCN(C(=O)C2CC2)CC1 [Olaparib] + CC(C)C[C@H](NC(=O)[C@H](Cc1ccccc1)NC(=O)c1cnccn1)B(O)O [Bortezomib] (partner 0.002 µM)
In short: as §1

Carfilzomib + Crizotinib = compound: CC(C)C[C@H](NC(=O)[C@H](CCc1ccccc1)NC(=O)CN1CCOCC1)C(=O)N[C@@H](Cc1ccccc1)C(=O)N[C@@H](CC(C)C)C(=O)[C@@]1(C)CO1 [Carfilzomib] + C[C@@H](Oc1cc(-c2cnn(C3CCNCC3)c2)cnc1N)c1c(Cl)ccc(F)c1Cl [Crizotinib] (partner 1 µM)
In short: as §1

Olaparib + Tozasertib = compound: O=C(c1cc(Cc2n[nH]c(=O)c3ccccc23)ccc1F)N1CCN(C(=O)C2CC2)CC1 [Olaparib] + Cc1cc(Nc2cc(N3CCN(C)CC3)nc(Sc3ccc(NC(=O)C4CC4)cc3)n2)n[nH]1 [Tozasertib] (partner 0.1 µM)
In short: as §1

UMC-11 was tested, and the relative viability (Crizotinib + Luminespib; first compound 0.01 µM) was 0.898, the relative viability (Crizotinib + Luminespib; first compound 0.03162 µM) was 1.1 and the relative viability (Crizotinib + Luminespib; first compound 0.1 µM) was 0.885. For the same cell line, the relative viability (Crizotinib + Luminespib; first compound 0.3162 µM) was 0.965, the relative viability (Crizotinib + Luminespib; first compound 1 µM) was 1.12 and the relative viability (Olaparib + Bortezomib; first compound 0.08 µM) was 0.98. For the same cell line, the relative viability (Olaparib + Bortezomib; first compound 0.253 µM) was 0.648, the relative viability (Olaparib + Bortezomib; first compound 2.53 µM) was 0.538 and the relative viability (Olaparib + Bortezomib; first compound 8 µM) was 0.325. It also gave a relative viability (Carfilzomib + Crizotinib; first compound 0.001 µM) of 0.613, a relative viability (Carfilzomib + Crizotinib; first compound 0.003162 µM) of 0.627 and a relative viability (Carfilzomib + Crizotinib; first compound 0.01 µM) of 0.627. The relative viability (Carfilzomib + Crizotinib; first compound 0.03162 µM) was 0.554, the relative viability (Carfilzomib + Crizotinib; first compound 0.1 µM) was 0.1 and the relative viability (Olaparib + Tozasertib; first compound 0.08 µM) was 0.231. It also gave a relative viability (Olaparib + Tozasertib; first compound 0.253 µM) of 0.208, a relative viability (Olaparib + Tozasertib; first compound 2.53 µM) of 0.235 and a relative viability (Olaparib + Tozasertib; first compound 8 µM) of 0.253.
